This note sets out measurements from the supplement of paper PMC7661543.

± gives the standard deviation of the averaged measurements.

Holding throughout (assay): relative cell number vs DMSO control (72 h) (% of DMSO); higher = less growth inhibition (more cells)
Holding throughout (conditions): sgRNA knockout: sgNT

The subject of one experiment is SKBR3. In short, it runs like this: (§1)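 Doxycycline at 100 ng/mL was applied for 6 days to pooled Cas9-engineered breast cancer lines, each holding 12 sgRNA perturbations. The cells were then seeded at 5000 per 96-well and exposed in duplicate for 72 h to four 10-fold doses (10 nM–10 μM or 1 nM–1 μM). Cell numbers were read from sequenced sgRNA and cell-line barcodes using per-sample 293T spike-in standard curves. The reported relative cell number is the percent of the median of DMSO-treated samples.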

The next experiment relates to BT-20. An outline of the steps:
as §1

The test system of another experiment is HCC-38. In short, it runs like this: as §1
Another experiment deals with MDA-MB-231. In short, it runs like this: as §1
A further experiment deals with ZR-75-1. In short, it runs like this: as §1

In the case of `CN1C(=O)C(Cc2c[nH]c3ccccc23)NC1=S` (stereo not given) [Necrostatin1], the relative cell number with SKBR3 (10 nM) amounted to 89.8 ± 11; in the experiment with SKBR3 (100 nM), 92.2 ± 8.2; in the experiment on SKBR3 (1000 nM) it was 60.4 ± 1.4; in the experiment on SKBR3 (10000 nM) it was 68.6 ± 3.7; in the experiment on BT-20 (10 nM), 110 ± 16; in the experiment on BT-20 (100 nM) it was 63.8 ± 8.2. In addition, the relative cell number with BT-20 (1000 nM) came out at 82.9 ± 0.53; in the experiment with BT-20 (10000 nM) it was 114 ± 14; with HCC-38 (10 nM) it was 110 ± 12; in the experiment on HCC-38 (100 nM) it was 92.5 ± 3.2; in the experiment on HCC-38 (1000 nM), 105 ± 2.8; in the experiment with HCC-38 (10000 nM), 91.2 ± 2.3. The relative cell number in the experiment on MDA-MB-231 (10 nM) turned out to be 97.3 ± 20; in the experiment with MDA-MB-231 (100 nM), 79.2 ± 7.1; in the experiment with MDA-MB-231 (1000 nM) it was 97.7 ± 25; in the experiment with MDA-MB-231 (10000 nM), 64.1 ± 3; in the experiment on ZR-75-1 (10 nM), 76.9 ± 14; with ZR-75-1 (100 nM), 71.3 ± 29. For the same molecule, the relative cell number with ZR-75-1 (1000 nM) is 78.3 ± 31; with ZR-75-1 (10000 nM), 84.6 ± 35.

As for `O=C(O)CC[C@H]1CC[C@@](c2cc(F)ccc2F)(S(=O)(=O)c2ccc(Cl)cc2)CC1` [MK0752], the relative cell number with SKBR3 (10 nM) is 172 ± 42; with SKBR3 (100 nM) it was 114 ± 19; with SKBR3 (1000 nM), 107 ± 24; in the experiment with SKBR3 (10000 nM) it was 111 ± 27; with BT-20 (10 nM), 137 ± 39; with BT-20 (100 nM), 112 ± 41. Further, the relative cell number was 145 ± 3.2 in the experiment with BT-20 (1000 nM); 134 ± 1.4 in the experiment with BT-20 (10000 nM); 135 ± 24 with HCC-38 (10 nM); 107 ± 2.6 with HCC-38 (100 nM); 112 ± 14 in the experiment with HCC-38 (1000 nM); 115 ± 43 in the experiment on HCC-38 (10000 nM). In addition, the relative cell number was determined as 170 ± 61 with MDA-MB-231 (10 nM); 93.4 ± 20 in the experiment on MDA-MB-231 (100 nM); 124 ± 7.5 with MDA-MB-231 (1000 nM); 94.4 ± 51 in the experiment on MDA-MB-231 (10000 nM); 120 ± 36 with ZR-75-1 (10 nM); 88.2 ± 30 in the experiment on ZR-75-1 (100 nM). The relative cell number with ZR-75-1 (1000 nM) came to 107 ± 22; in the experiment on ZR-75-1 (10000 nM) it was 127 ± 28.

`Nc1ncn([C@H]2C[C@H](O)[C@@H](CO)O2)c(=O)n1` [Decitabine]: the relative cell number came out at 104 ± 76 with SKBR3 (10 nM); 68.3 ± 37 in the experiment on SKBR3 (100 nM); 55.4 ± 22 in the experiment with SKBR3 (1000 nM); 45.9 ± 16 in the experiment with SKBR3 (10000 nM); 92.6 ± 11 in the experiment with BT-20 (10 nM); 83 ± 5.8 in the experiment with BT-20 (100 nM). Besides, the relative cell number in the experiment with BT-20 (1000 nM) was 75.7 ± 17; in the experiment on BT-20 (10000 nM) it was 50.5 ± 15; in the experiment with HCC-38 (10 nM), 98.2 ± 27; with HCC-38 (100 nM), 80.8 ± 14; in the experiment with HCC-38 (1000 nM) it was 49.3 ± 4.6; in the experiment on HCC-38 (10000 nM), 35.6 ± 3.4. The relative cell number in the experiment with MDA-MB-231 (10 nM) came to 83 ± 13; in the experiment on MDA-MB-231 (100 nM), 78.2 ± 10; with MDA-MB-231 (1000 nM) it was 31.2 ± 4.4; with MDA-MB-231 (10000 nM), 19.9 ± 0.36; in the experiment with ZR-75-1 (10 nM), 119 ± 23; with ZR-75-1 (100 nM) it was 54.9 ± 30. Also, the results for the relative cell number in the experiment on ZR-75-1 (1000 nM) and with ZR-75-1 (10000 nM) were 51.2 ± 7.2 and 40.4 ± 17, respectively.

Turning to `C[C@]12CC[C@H](O)CC1=CC[C@@H]1[C@@H]2CC[C@]2(C)C(c3cccnc3)=CC[C@@H]12` [Abiraterone], the relative cell number in the experiment on SKBR3 (1 nM) was determined as 139 ± 37; with SKBR3 (10 nM), 118 ± 15; in the experiment with SKBR3 (100 nM), 114 ± 42; in the experiment on SKBR3 (1000 nM), 114 ± 10; in the experiment on BT-20 (1 nM) it was 109 ± 10; in the experiment with BT-20 (10 nM), 115 ± 6.5. Besides, the relative cell number came to 118 ± 20 in the experiment with BT-20 (100 nM); 116 ± 3.4 in the experiment with BT-20 (1000 nM); 109 ± 2.1 in the experiment with HCC-38 (1 nM); 107 ± 4.5 with HCC-38 (10 nM); 104 ± 5.2 in the experiment with HCC-38 (100 nM); 116 ± 16 in the experiment on HCC-38 (1000 nM). For the same molecule, the relative cell number in the experiment with MDA-MB-231 (1 nM) came out at 127 ± 2.9; with MDA-MB-231 (10 nM), 115 ± 3.5; in the experiment on MDA-MB-231 (100 nM), 99.4 ± 5.8; with MDA-MB-231 (1000 nM) it was 153 ± 19; with ZR-75-1 (1 nM) it was 101 ± 16; with ZR-75-1 (10 nM), 115 ± 34. The values for the relative cell number in the experiment on ZR-75-1 (100 nM) and in the experiment with ZR-75-1 (1000 nM) were 105 ± 18 and 90.5 ± 55, respectively.

With `CC1(C)CCC(c2ccc(Cl)cc2)=C(CN2CCN(c3ccc(C(=O)NS(=O)(=O)c4ccc(N[C@H](CCN5CCOCC5)CSc5ccccc5)c(S(=O)(=O)C(F)(F)F)c4)cc3)CC2)C1` [Navitoclax], the relative cell number with SKBR3 (10 nM) turned out to be 74.6 ± 24; in the experiment with SKBR3 (100 nM), 117 ± 33; in the experiment with SKBR3 (1000 nM), 50 ± 18; in the experiment on SKBR3 (10000 nM), 75.1 ± 14; in the experiment on BT-20 (10 nM), 85.4 ± 11; in the experiment with BT-20 (100 nM), 90.6 ± 3.6. Further, the relative cell number in the experiment on BT-20 (1000 nM) turned out to be 94.8 ± 3.5; in the experiment with BT-20 (10000 nM), 78 ± 12; in the experiment with HCC-38 (10 nM), 96.9 ± 14; in the experiment on HCC-38 (100 nM) it was 102 ± 12; in the experiment with HCC-38 (1000 nM) it was 76.6 ± 12; with HCC-38 (10000 nM), 47.9 ± 1.3. The relative cell number with MDA-MB-231 (10 nM) was found to be 93.9 ± 27; in the experiment with MDA-MB-231 (100 nM), 108 ± 6.7; in the experiment with MDA-MB-231 (1000 nM) it was 93.9 ± 13; in the experiment on MDA-MB-231 (10000 nM), 52.5 ± 7.4; in the experiment with ZR-75-1 (10 nM) it was 86.5 ± 10; in the experiment on ZR-75-1 (100 nM), 95.5 ± 39. The relative cell number in the experiment with ZR-75-1 (1000 nM) is 105 ± 11; in the experiment with ZR-75-1 (10000 nM), 81.5 ± 24.

In the case of `O=C(c1cc(Cc2n[nH]c(=O)c3ccccc23)ccc1F)N1CCN(C(=O)C2CC2)CC1` [Olaparib], the relative cell number in the experiment with SKBR3 (10 nM) came to 87.7 ± 1.6; with SKBR3 (100 nM), 111 ± 9.3; in the experiment on SKBR3 (1000 nM), 85.4 ± 11; in the experiment on SKBR3 (10000 nM) it was 48.7 ± 9.5; in the experiment on BT-20 (10 nM), 103 ± 6; with BT-20 (100 nM) it was 85.9 ± 12. The relative cell number with BT-20 (1000 nM) is 73.2 ± 6.7; with BT-20 (10000 nM), 94 ± 7.7; in the experiment with HCC-38 (10 nM), 93.4 ± 4.8; in the experiment on HCC-38 (100 nM), 102 ± 2.2; in the experiment on HCC-38 (1000 nM) it was 88.6 ± 1.6; with HCC-38 (10000 nM), 62.5 ± 0.89. In addition, the relative cell number in the experiment on MDA-MB-231 (10 nM) is 87.3 ± 12; with MDA-MB-231 (100 nM), 83.4 ± 1.6; in the experiment with MDA-MB-231 (1000 nM), 93.9 ± 22; with MDA-MB-231 (10000 nM), 93.2 ± 31; in the experiment with ZR-75-1 (10 nM), 78.3 ± 13; in the experiment with ZR-75-1 (100 nM) it was 89.3 ± 28. Also, the results for the relative cell number with ZR-75-1 (1000 nM) and in the experiment on ZR-75-1 (10000 nM) were 64.1 ± 3.7 and 91.3 ± 17, respectively.

Take `CC(C)n1c(/C=C/C(O)CC(O)CC(=O)O)c(-c2ccc(F)cc2)c2ccccc21` (stereo not given) [Fluvastatin]: the relative cell number is 64.9 ± 4 in the experiment with SKBR3 (10 nM); 87.3 ± 1.6 in the experiment with SKBR3 (100 nM); 82.5 ± 41 in the experiment on SKBR3 (1000 nM); 51 ± 34 in the experiment on SKBR3 (10000 nM); 67.8 ± 3.3 in the experiment with BT-20 (10 nM); 95 ± 7 in the experiment with BT-20 (100 nM). For the same molecule, the relative cell number in the experiment on BT-20 (1000 nM) came to 97.3 ± 4.6; with BT-20 (10000 nM), 72.2 ± 16; in the experiment with HCC-38 (10 nM) it was 110 ± 7.6; in the experiment on HCC-38 (100 nM), 102 ± 6.7; with HCC-38 (1000 nM), 96.6 ± 11; in the experiment with HCC-38 (10000 nM), 65.4 ± 2.2. The relative cell number with MDA-MB-231 (10 nM) is 108 ± 46; in the experiment with MDA-MB-231 (100 nM) it was 92.1 ± 46; in the experiment on MDA-MB-231 (1000 nM) it was 30.8 ± 7.9; with MDA-MB-231 (10000 nM), 10.6 ± 3.6; with ZR-75-1 (10 nM) it was 78.2 ± 28; in the experiment with ZR-75-1 (100 nM) it was 83.5 ± 20. Moreover, the relative cell number in the experiment with ZR-75-1 (1000 nM) is 62.6 ± 22; in the experiment with ZR-75-1 (10000 nM) it was 78.7 ± 1.4.
